Assay results published in patent US5455267A, “Chromone derivative, and aldose reductase inhibitor comprising said compound as active component” (Tsumura & Co., priority 1990, dated 1995).
Where a name gives a salt, the structure may show the parent alone. Read-outs that look alike come from different tables or passages of the source.

Tests used:
[1] = tested on: sorbitol contained in the sciatic nerves (aldose reductase); experiment: Determination of Aldose Reductase Activity (In Vivo): sorbitol in sciatic nerves of STZ diabetic rats; set-up: species or system Wistar male rats; conditions: Rattus norvegicus, po, 336 h, Table 3, sciatic nerve sorbitol, read-out: Repression rate %; for inhibition in vivo at 30 mg/kg: 30 mg/kg orally for 2 weeks; for inhibition in vivo at 50 mg/kg: 50 mg/Kg orally
Procedure: Streptozotocin (STZ) dissolved in 10 mM citrate buffer (pH 4.5) was administered intravenously to 6 week-old Wistar male rats […] in an amount of 65 mg/kg. 48 hours thereafter, blood was collected from the carotid […] of the rats. Rats with a blood glucose level of 200 mg/dl or more were classified as those with diabetes. Rats with a persistent high level of blood sugar were employed in the experiment. The blood glucose level was determined by the glucose oxidase method. 2 weeks after administration of STZ, a compound obtained in the following examples was suspended in purified water or 0.5% carboxy sodium cellulose solution. This solution was orally administered into a rat in an amount of 30 mg/kg for 2 weeks. 2 weeks after the adminstration, sciatic nerves were removed from the rat under ether anesthesia. The sciatic nerves were weighed and stored at -20° C. The amount of sorbitol contained in the sciatic nerves was determined as follows. That is, the sciatic nerves were subjected to extraction with 1 ml of purified water containing 10 gg/ml arabinitol at 100° C. for 20 min., followed by addition of 0.2 ml each of 0.2M barium hydroxide and 0.19M zinc sulfate. […] The resulting sample was […] then analyzed by gas chromatography. Sorbitol is an intermediate which occurs during convertion of glucose to fructose by aldose reductase, and this intermediate is accumulated together with fructose in the crystalline lenses and sciatic nerves, particularly under a high level of blood glucose. Therefore, the smaller amount of sorbitol formed indicates higher inhibition of aldose reductase.

[2] = target: T1, aldose reductase (Rattus norvegicus, UniProt P07943); experiment: Determination of Aldose Reductase Activity (In Vitro); assay type: biochemical, rat (Wistar); conditions: for inhibition at 10 µM: at the concentration of 10 μM, read-out: Inhibition rate %
T1 construct: The crystalline lenses were homogenized in 135 mM sodium-potassium-phosphate buffer (pH 7.0) and centrifuged; from tissue; host or cells: lens of 6 week-old Wistar rats (30,000 rpm supernatant of homogenate)
Procedure: 6 week-old Wistar rats were sacrificed under ether anesthesia, and immediately lenses were removed and stored at -20° C. The crystalline lenses were homogenized in 135 mM sodium-potassium-phosphate buffer (pH 7.0) and centrifuged for 30 min. at 30,000 rpm. The supernatant was used as an aldose-reductase solution. The above procedure was carried out at 4° C. The enzyme solution was stored at -20° C.
The measurement of aldose reductase activity was conducted according to the method as described by Duffane et al. (Biochemical Medicine, 32:99-105 (1984)).
That is, 100 gl of the above enzyme solution and 100 gl of a solution prepared by dissolving a compound obtained in the following example to a final concentration of from 1.0×10^-5 to 4.0×10^-7 M in dimethylsulfoxide (DMSO) were added to 800 gl of 135 mM sodium-potassium-phosphate buffer (pH 7.0) containing 100 mM lithium sulfate, 0.03 mM NADPH (reduced form of nicotinamide adeninc dinucleotide phosphate) and 20 mM glucose as a substrate. The sample was allowed to react for 30 min. at 30° C. The reaction was stopped by addition of 0.3 ml of 0.5N hydrochloric acid. The NADP (oxided form of nicotinamide adenine dinucleotide) formed during the above reaction was converted into a fluorescent substance by addition of 1 ml of 6N sodium hydroxide containing 10 mM imidazole. 30 min. thereafter, the sample was measured for fluorescence intensity at the fluorescence wavelength of 460 nm (excitation wavelength: 360 nm) using a fluorescence photometer F-4000 (manufactured by Hitachi, Ltd.) at room temperature. A sample containing DMSO in place of the present compound was used as a control, and its fluorescence intensity was determined in the same manner as above.
Aldose reductase is an enzyme to convert DL-glyceraldehyde or glucose into polyol in the presence of NADPH as a coenzyme. As this reaction proceeds, NADPH is converted into NADP, so that the smaller amount of NADP formed indicates higher inhibition of aldose reductase. […]

[3] = target: T2, aldehyde reductase (Rattus norvegicus, UniProt P51635); experiment: Ability of Selective Inhibition of Aldose Reductase (aldehyde reductase activity); assay type: biochemical; conditions: for IC50: Table 4, rat kidney aldehyde reductase, 50 mM DL-glyceraldehyde, pH 7.0, read-out: 50% Inhibition conc [IC50 (M)] Aldehyde reductase
T2 construct: The supernatant thus obtained was subjected to 30-60% ammonium sulfate fractionation; from tissue; host or cells: rat kidney (30-60% ammonium sulfate fraction of homogenate supernatant, dialyzed)
T2 sequence (P51635 1-325): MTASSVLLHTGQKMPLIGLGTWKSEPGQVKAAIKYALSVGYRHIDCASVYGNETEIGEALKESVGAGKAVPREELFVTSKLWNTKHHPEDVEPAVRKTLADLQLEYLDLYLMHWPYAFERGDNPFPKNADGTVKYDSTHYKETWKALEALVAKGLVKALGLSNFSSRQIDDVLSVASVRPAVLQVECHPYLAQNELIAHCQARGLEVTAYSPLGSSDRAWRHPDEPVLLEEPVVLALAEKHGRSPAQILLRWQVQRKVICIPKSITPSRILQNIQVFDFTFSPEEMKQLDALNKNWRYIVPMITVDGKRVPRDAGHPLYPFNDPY
Procedure: From rats under ether anesthesia, the kidneys were removed and stored at -20 ° C. The kidneys were homogenized in 0.1M phosphate buffer (pH 7.2) containing 5 mM 2-mercaptoethanol (kidneys: buffer =1:10 (by volume)), followed by centrifugation (14,000 rpm, 20 min., 4° C.), whereby a supernatant was obtained. The supernatant thus obtained was subjected to 30-60% ammonium sulfate fractionation. The resulting precipitates were collected by centrifugation (9,200 rpm, 20 min., 4° C.) The precipitates were suspended in a buffer with the same composition as described above. This suspension was dialyzed overnight at 4° C. against a buffer with the same composition, so that a crude aldehyde reductase solution was obtained. The activity of aldehyde reductase was determined in the same manner as for aldose reductase except for use of 0.1M phosphate buffer (pH 7.0) and as substrate 50 mM DL-glyceraldehyde.
The ability of selective inhibition of aldose reductase was determined by dividing the thus obtained 50% inhibition concentration [IC50 (M)] of aldehyde reductase by the above 50% inhibition concentration [IC50 (M)]of aldose reductase.

[4] = Table 3, rat lens aldose reductase, 20 mM glucose, 30 min, 30° C, pH 7.0, read-out: 50% Inhibition Conc. [IC50 (M)]
[5] = Table 4, aldose reductase, read-out: 50% Inhibition conc [IC50 (M)] Aldose reductase

Row | Structure (SMILES) | inhibition at 10 µM ([2]; Table 3) | IC50 [2, 4] | IC50 [3] | also measured
1 | CCC(CC)Oc1cc2oc(Sc3ccc(OC(=O)CN)cc3)cc(=O)c2c(OC)c1OC [Compound 1 obtained in Example 37, 7-(1-ethylpropoxy)-5,6-dimethoxy-2-(4-glycyloxyphenylthio)chromone hydrochloride] |  |  |  | inhibition in vivo at 30 mg/kg [1]: 51.6%
2 | CCC(CC)Oc1cc2oc(Sc3ccc(OC(=O)c4ccc(CN5CCN(C)CC5)cc4)cc3)cc(=O)c2c(OC)c1OC [Compound 2 obtained in Example 39, 5,6-dimethoxy-7-(1-ethylpropoxy)-2-{4-[4-(4-methylpiperazinomethyl)benzoyloxy]phenylthio}chromone dihydrochloride] |  |  |  | inhibition in vivo at 30 mg/kg [1]: 4.6%
3 | CCC(C)Oc1cc2oc(Sc3ccc(O)cc3)cc(=O)c2c(OC(C)C)c1OC (stereo not drawn) [Example 16, 7-s-butoxy-2-(4-hydroxyphenylthio)-5-isopropoxy-6-methoxychromone] | 96.5% | 3.8e-08 M | > 0.0001 M | 
4 | CCC(C)Oc1cc2oc(Sc3ccc(O)cc3)cc(=O)c2c(OC)c1OC (stereo not drawn) [Example 23, 7-s-butoxy-5,6-dimethoxy-2-(4-hydroxyphenylthio)chromone] | 100% | 4.4e-08 M | > 0.0001 M | 
5 | COc1c(OC(C)C)cc2oc(Sc3ccc(OC(=O)CN)cc3)cc(=O)c2c1OC [Example 35, 5,6-dimethoxy-2-(4-glycyloxyphenylthio)-7-isopropoxychromone hydrochloride] |  |  |  | inhibition in vivo at 30 mg/kg [1]: 43.7%
6 | CCOc1c(OC)c(OC(C)C)cc2oc(Sc3ccc(OC(=O)CN)cc3)cc(=O)c12 [Example 36, 5-ethoxy-2-(4-glycyloxyphenylthio)-7-isopropoxy-6-methoxychromone hydrochloride] |  |  |  | inhibition in vivo at 30 mg/kg [1]: 12.3%
7 | CCC(CC)Oc1cc2oc(Sc3ccc(OC(=O)c4ccc(CN5CCN(C)CC5)cc4)cc3)cc(=O)c2c(O)c1OC [Example 40, 7-(1-ethylpropoxy)-5-hydroxy-2-{4-[4-(4-methylpiperazinomethyl)benzoyloxy]phenylthio}-6-methoxychromone dihydrochloride] |  |  |  | inhibition in vivo at 30 mg/kg [1]: 27.9%
8 | COc1ccc(CSc2cc(=O)c3c(OC)cc(OC)cc3o2)cc1 [Example 73, 5,7-dimethoxy-2-(4-methoxybenzylthio)chromone] | 16.4% |  |  | 
9 | COc1cc(O)c2c(=O)cc(SCc3ccc(O)cc3)oc2c1 [Example 74, 5-hydroxy-2-(4-hydroxybenzylthio)-7-methoxychromone] | 52.1% |  |  | 
10 | O=c1cc(SCc2ccc(O)cc2)oc2cc(O)cc(O)c12 [Example 75, 5,7-dihydroxy-2-(4-hydroxybenzylthio)chromone] | 43.5% |  |  | 

Continued, in another order:

Row | inhibition at 10 µM ([2]; Table 3) | IC50 [2, 4] | IC50 [3] | Structure (SMILES) | also measured
11 | 81% | 1.6e-06 M |  | COc1c(O)cc2oc(Oc3ccc(O)cc3)cc(=O)c2c1O [Capillarisin, reference compound] | inhibition in vivo at 100 mg/kg ([1]; 100 mg/kg orally): 18.9%
12 | 94.5% |  | 1e-05 M | COc1c(O)cc2oc(Sc3ccc(O)cc3)cc(=O)c2c1O [Compound (Formula B), reference compound] | Ability of selective inhibition ([3]; IC50 of aldehyde reductase divided by IC50 of aldose reductase): 55.5; IC50 [2, 5]: 1.8e-07 M
13 | 97.3% | 1.1e-07 M | > 0.0001 M | COc1cc2oc(Sc3ccc(O)cc3)cc(=O)c2c(OC)c1OC [Example 1, 2-(4-hydroxyphenylthio)-5,6,7-trimethoxychromone] | 
14 | 98.7% |  | > 0.0001 M | CCOc1c(OC)c(OC(C)C)cc2oc(Sc3ccc(O)cc3)cc(=O)c12 [Example 18, 5-ethoxy-2-(4-hydroxyphenylthio)-7-isopropoxy-6-methoxychromone] | inhibition in vivo at 50 mg/kg [1]: 5.9%; IC50 [2, 5]: 1.8e-08 M
15 | 98.3% | 3e-08 M | > 0.0001 M | COc1c(OC(C)C)cc2oc(Sc3ccc(O)cc3)cc(=O)c2c1OC [Example 22, 5,6-dimethoxy-2-(4-hydroxyphenylthio)-7-isopropoxychromone] | inhibition in vivo at 50 mg/kg [1]: 6.8%
16 | 93.2% | 6e-08 M | > 0.0001 M | CCC(CC)Oc1cc2oc(Sc3ccc(O)cc3)cc(=O)c2c(OC)c1OC [Example 25, 5,6-dimethoxy-7-(1-ethylpropoxy)-2-(4-hydroxyphenylthio)chromone] | inhibition in vivo at 50 mg/kg [1]: 16%
17 | 96.7% | 1.1e-07 M | 0.0001 M | CCC(CC)Oc1cc2oc(Sc3ccc(O)cc3)cc(=O)c2c(O)c1OC [Example 33, 7-(1-ethylpropoxy)-5-hydroxy-2-(4-hydroxyphenylthio)-6-methoxychromone] | 
